The values that follow come from patent US20180360898A1, “USE OF CRANBERRY DERIVED PHENOLIC COMPOUNDS AS ANTIBIOTIC SYNERGIZING AGENT AGAINST PATHOGENIC BACTERIA” (THE ROYAL INSTITUTION FOR THE ADVANCEMENT OF …, priority 2015, published 2018).

As usually defined, the MIC is the lowest concentration found to suppress growth. Low values mean inhibition by little substance, high ones a need for much substance.

Assay [1] relates to E. coli CFT073. Kind of assay: Minimum Inhibitory Concentration (MIC). Type of assay: cell-based, Escherichia coli. Particulars: alone, MHB-II broth. The method, then:
(§1) Pure stock cultures were maintained at −80° C. in 30% (v/v) frozen glycerol solution. Starter cultures were prepared by streaking frozen cultures onto LB agar (LB broth: tryptone 10 g/L, yeast extract 5 g/L and NaCl 5 g/L, supplemented with 1.5 w/v % agar (Fisher Scientific, Canada)). After overnight incubation at 37° C., a single colony was inoculated into 10 mL of LB broth and the culture was incubated at 37° C. on an orbital shaker at 150 rpm for time lengths specific to each experiment. LB broth was used for bacterial culture in all experiments unless otherwise specified.
(§2) Minimum Inhibitory Concentration (MIC) was determined by preparing two-fold serial dilutions of each cPACs fraction and antibiotic in Mueller Hinton broth adjusted with Ca^2+ and Mg^2+ (MHB-II, Oxoid, Fisher Scientific, Canada). […] Bacterial growth was assessed by (i) monitoring the optical density of the cell suspension in each well at 600 nm (OD600 nm), and (ii) the resazurin microtitre plate assay. In the resazurin microtitre plate assay, each well of a microtitre plate was supplemented with 20 μM resazurin, incubated in dark for 20 min at room temperature, followed by fluorescence measurements at ex/em 570/590 nm using a TECAN Infinite M200 Pro microplate reader (Tecan Group Ltd., Switzerland). […]

The test system of assay [2] is P. aeruginosa PAO1. Kind of assay: Minimum Inhibitory Concentration (MIC). In kind it is cell-based, Pseudomonas aeruginosa. Particulars: alone, MHB-II broth. The method, then: as §1, §2

Consider gentamicin, for which the MIC in assay [1] and in assay [2] was 2 µg/mL in each case.
